Experimental data published in patent US12571805B2, “Methods and compositions for determining OxPL-associated diseases and disorders” (The Regents of the University of California, priority 2019, dated 2026).

Experiments:
primary hepatocytes = test: OxPAPC treatment of primary hepatocytes: ROS, mitochondrial membrane potential, fatty acid oxidation, SOD activity; format: cell-based, mouse; details: 200 μM MnTBAP 1 hour, then OxPAPC 100 μg/mL 4 hours, Ldlr−/− hepatocytes
Description: Primary hepatocyte isolation: Primary hepatocytes were isolated from 6-week-old Ldlr^−/− and E06-scFvLdlr^−/− mice by a 2-step collagenase perfusion method. Briefly, HBSS (Life Technologies Co.; no Calcium and Magnesium, 0.5 mM EDTA, 25 mM HEPES) was used to perfuse liver at 10 mL/min speed until the liver turns into pale. Afterward, the liver was perfused with HBSS digestion buffer (Life Technologies Co.; 30 mg/100 mL collagenase I, 2 tablet/100 mL protease inhibitor) at 15 mL/min speed for 18 min. After sequential flows, cells were smashed through 100 μm strainer and washed with Williams' Medium E (Gibco, Grand Island, NY). Hepatocytes were isolated by density gradient centrifugation using percoll (Pharmacia, Sweden). Hepatocytes with 95% viability were cultured in Williams' Medium E supplemented with 5% serum, 0.5% penicillin/streptomycin and 15 mM HEPES at 37° C. in a 5% CO2 incubator overnight before use in experimentation.
ROS and Mitochondrial membrane potential measurement: Total ROS was determined with Total ROS detection Kit (ENZ-51011 Enzo Life Sciences Inc.) and mitochondrial ROS levels using MitoSOX (Invitrogen) following the manufacturers' instructions. Mitochondrial membrane potential (Ψm) was measured using TMRM as previously described (Shimada et al., 2012).
Ex vivo/in vitro fatty acid oxidation assay: Liver or adipose tissues were dissected, weighted, quickly rinsed in PBS. Minced tissues were placed in 96-well tissue culture plate. […] Fatty Acid Oxidation was measured with combination of Fatty Acid Oxidation Assay Kit (Abcam) and Oxygen Consumption Assay Kit (Abcam) according to the manufacturer's instruction. […] Fluorescence was measured at 37° C. for 30 min by Tecan Infinite M200 Pro.
In vitro modification of SOD and SOD activity: Recombinant human MnSOD (Abcam, ab82656) was incubated with POVPC (Avanti Polar Lipids, 870606) (molar ration 1:40) or vehicle at 37° C. overnight. […] SOD activity of recombinant and modified MnSOD and liver and cell lysates was measured with Superoxide Dismutase Activity Assay Kit (Abcam) according to the manufacturer's instruction.

Recombinant human MnSOD = target: T1, Recombinant human MnSOD (Homo sapiens, UniProt P04179); test: In vitro modification of SOD and SOD activity; format: biochemical; details: POVPC molar ratio 1:40, 37° C. overnight, vs native MnSOD
T1 construct: purchased Abcam ab82656
T1 sequence (P04179 25-222): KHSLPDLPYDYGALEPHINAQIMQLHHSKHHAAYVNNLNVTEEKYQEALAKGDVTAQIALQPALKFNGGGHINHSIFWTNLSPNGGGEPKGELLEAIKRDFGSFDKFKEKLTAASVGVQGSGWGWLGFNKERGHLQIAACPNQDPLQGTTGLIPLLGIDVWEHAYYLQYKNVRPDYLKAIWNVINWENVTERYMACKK
Description: In vitro modification of SOD and SOD activity: Recombinant human MnSOD (Abcam, ab82656) was incubated with POVPC (Avanti Polar Lipids, 870606) (molar ration 1:40) or vehicle at 37° C. overnight. 300 μg/mL NaBH3CN was added to stabilize reversible OxPL adducts. Both native and POVPC modified MnSOD were dialyzed extensively against PBS. SOD activity of recombinant and modified MnSOD and liver and cell lysates was measured with Superoxide Dismutase Activity Assay Kit (Abcam) according to the manufacturer's instruction.

Row | Compound | OxPL-diminished mitochondrial membrane potential (primary hepatocytes) | mitochondrial ROS accumulation (primary hepatocytes) | total ROS accumulation (primary hepatocytes) | MnSOD activity of POVPC modified MnSOD (Recombinant human MnSOD)
1 | O=C(O)c1ccc(/C2=C3\C=CC(=N3)/C(c3ccc(C(=O)O)cc3)=c3/cc/c4[n]3[Mn]([Cl])[n]3c2ccc3/C(c2ccc(C(=O)O)cc2)=C2/C=CC(=N2)\C=4c2ccc(C(=O)O)cc2)cc1 [MnTBAP] | restored | abrogated | abrogated | –
2 | CCCCCCCCCCCCCCCC(=O)OC[C@H](COP(=O)([O-])OCC[N+](C)(C)C)OC(=O)CCCC=O [POVPC, 1-palmitoyl-2-(5′-oxo-valeroyl)-sn-glycero-3-phosphocholine] | – | – | – | significantly decreased activity
